From patent publication US20060069132A1, “Azolecarboxamide herbicides” (priority 2004, published 2006)
Read-outs that look alike come from different tables or passages of the source.

How the values were obtained:
[1] = system: barnyardgrass; assay: Test B pre-/postemergence herbicide test; type: in vivo, Echinochloa crus-galli; details: for pest or weed control at 500 g/ha: 500 g ai/ha
Method in brief: (§1)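 Formulation: non-phytotoxic solvent mix with surfactant. Timing: preemergence on seed and postemergence on 2–18 cm plants, applied concurrently. Readout after 13–15 d greenhouse: visual 0–100 control rating against controls.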

[2] = system: small flower umbrella sedge; assay: Test B flooded paddy test; type: in vivo, Cyperus difformis; details: Cyperus difformis, 336 h, 1000 g ai/ha, scale 0 to 100 (0 no effect, 100 complete control), read-out: Sedge, Umbrella plant response rating
Method in brief: (§2)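 Scale 0–100: zero equals no visible effect, 100 complete control, judged by eye relative to controls. Timing: 13 to 15 days in greenhouse post-treatment. Growth stage at spraying: two leaves (paddy) or one to four leaves, 2–18 cm (postemergence).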

[3] = system: wheat; assay: Test B postemergence herbicide test; type: in vivo, Triticum aestivum; details: Triticum aestivum, post-emergence, 336 h, read-out: Wheat plant response rating
Method in brief: (§3)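 Greenhouse test; postemergence application to plants at 1–4 leaves (2–18 cm); paddy species at 2 leaves; evaluated visually vs controls at 13–15 days; scale 0–100 (100 = complete control).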

[4] = system: cocklebur; assay: Test B pre-/postemergence herbicide test; type: in vivo, Xanthium strumarium; details: for pest or weed control at 500 g/ha: 500 g ai/ha
Method in brief: as §1

[5] = system: blackgrass; assay: Test B postemergence herbicide test; type: in vivo, Alopecurus myosuroides; details: Alopecurus myosuroides, post-emergence, 336 h, read-out: Blackgrass plant response rating
Method in brief: as §2

[6] = system: Surinam grass; assay: Test B pre-/postemergence herbicide test; type: in vivo, Urochloa decumbens; details: for pest or weed control at 500 g/ha: 500 g ai/ha
Method in brief: (§4)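 Seeds were planted and treated preemergence with compounds formulated in a non-phytotoxic solvent mixture containing surfactant, while plants at the 1- to 4-leaf stage (2 to 18 cm) received postemergence sprays. Flooded paddy plants were grown to the 2-leaf stage. After 13 to 15 days in a greenhouse, injury was visually rated 0–100 against untreated controls.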

[7] = system: barnyardgrass; assay: Test B flooded paddy test; type: in vivo, Echinochloa crus-galli; details: Echinochloa crus-galli, 336 h, 1000 g ai/ha, scale 0 to 100 (0 no effect, 100 complete control), read-out: Barnyardgrass plant response rating
Method in brief: as §2

[8] = system: ducksalad; assay: Test B flooded paddy test; type: in vivo, Heteranthera limosa; details: Heteranthera limosa, 336 h, 1000 g ai/ha, scale 0 to 100 (0 no effect, 100 complete control), read-out: Ducksalad plant response rating
Method in brief: as §2

[9] = system: large crabgrass; assay: Test B pre-/postemergence herbicide test; type: in vivo, Digitaria sanguinalis; details: for pest or weed control at 500 g/ha: 500 g ai/ha
Method in brief: as §4

[10] = system: corn; assay: Test B pre-/postemergence herbicide test; type: in vivo, Zea mays
Method in brief: as §4

[11] = system: wild oat; assay: Test B postemergence herbicide test; type: in vivo, Avena fatua; details: Avena fatua, post-emergence, 336 h, read-out: Oat, Wild plant response rating
Method in brief: as §3

[12] = system: pigweed; assay: Test B pre-/postemergence herbicide test; type: in vivo, Amaranthus retroflexus; details: for pest or weed control at 500 g/ha: 500 g ai/ha
Method in brief: as §4

[13] = system: giant foxtail; assay: Test B pre-/postemergence herbicide test; type: in vivo, Setaria faberi; details: for pest or weed control at 500 g/ha: 500 g ai/ha
Method in brief: as §4

[14] = system: rice; assay: Test B flooded paddy test; type: in vivo, Oryza sativa; details: Oryza sativa, 336 h, 1000 g ai/ha, scale 0 to 100 (0 no effect, 100 complete control), read-out: Rice plant response rating
Method in brief: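 Visual ratings, 0 (no effect) to 100 (complete control), made versus controls after 13–15 d greenhouse. Paddy plants treated at 2-leaf stage; postemergence plants at 1- to 4-leaf stage, 2–18 cm tall.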

[15] = system: velvetleaf; assay: Test B pre-/postemergence herbicide test; type: in vivo, Abutilon theophrasti
Method in brief: as §4

[16] = 125 g ai/ha, 0 is no effect, 100 is complete control, preemergence
[17] = 125 g ai/ha, visual rating, scale 0 (no effect) to 100 (complete control)
[18] = postemergence, 500 g ai/ha, scale 0 to 100, 0 is no effect, 100 is complete control

For `CCc1nn(C(C)C)nc1C(=O)Nc1cccc(C(=O)N(C)C)c1` [Compound 358, N-[3-[(dimethylamino)carbonyl)phenyl]-5-ethyl-2-(1-methylethyl)-2H-1,2,3-triazole-4-carboxamide], the “Plant response rating (0 to 100 scale), Barnyardgrass” value [1, 16] was 70, the pest or weed control at 125 g/ha ([1]; Echinochloa crus-galli, post-emergence, 125 g ai/ha, visual rating, scale 0 (no effect) to 100 (complete control), read-out: Barnyardgrass plant response rating) was 10% and the pest or weed control at 500 g/ha ([1]; Echinochloa crus-galli, post-emergence, postemergence, scale 0 to 100, 0 is no effect, 100 is complete control, read-out: Barnyardgrass plant response rating) was 20%. For the same molecule, the pest or weed control at 500 g/ha ([1]; Echinochloa crus-galli, pre-emergence, visual rating, 0 = no effect, 100 = complete control, read-out: Plant response rating, Barnyardgrass) was 100%, the pest or weed control at 1000 g/ha [2] was 80% and the plant injury at 125 g/ha [3, 17] was 0%. The plant injury at 500 g/ha [3, 18] was 10%, the “Plant response rating (0 to 100 scale), Cocklebur” value [4, 16] was 40 and the pest or weed control at 125 g/ha ([4]; Xanthium strumarium, post-emergence, 125 g ai/ha, visual rating, scale 0 (no effect) to 100 (complete control), read-out: Cocklebur plant response rating) was 0%. For the same molecule, the pest or weed control at 500 g/ha ([4]; Xanthium strumarium, post-emergence, postemergence, scale 0 to 100, 0 is no effect, 100 is complete control, read-out: Cocklebur plant response rating) was 20%, the pest or weed control at 500 g/ha ([4]; Xanthium strumarium, pre-emergence, visual rating, 0 = no effect, 100 = complete control, read-out: Plant response rating, Cocklebur) was 90% and the pest or weed control at 125 g/ha [5, 17] was 10%. The pest or weed control at 500 g/ha [5, 18] was 40%, the “Plant response rating (0 to 100 scale), Surinam Grass” value [6, 16] was 50 and the pest or weed control at 125 g/ha ([6]; Urochloa decumbens, post-emergence, 125 g ai/ha, visual rating, scale 0 (no effect) to 100 (complete control), read-out: Surinam Grass plant response rating) was 10%. It also gave a pest or weed control at 500 g/ha ([6]; Urochloa decumbens, post-emergence, postemergence, scale 0 to 100, 0 is no effect, 100 is complete control, read-out: Surinam Grass plant response rating) of 10%, a pest or weed control at 500 g/ha ([6]; Urochloa decumbens, pre-emergence, visual rating, 0 = no effect, 100 = complete control, read-out: Plant response rating, Surinam Grass) of 100% and a pest or weed control at 1000 g/ha [7] of 80%. The pest or weed control at 1000 g/ha [8] was 90%, the “Plant response rating (0 to 100 scale), Crabgrass, Large” value [9, 16] was 100 and the pest or weed control at 125 g/ha ([9]; Digitaria sanguinalis, post-emergence, 125 g ai/ha, visual rating, scale 0 (no effect) to 100 (complete control), read-out: Crabgrass, Large plant response rating) was 10%. The pest or weed control at 500 g/ha ([9]; Digitaria sanguinalis, post-emergence, postemergence, scale 0 to 100, 0 is no effect, 100 is complete control, read-out: Crabgrass, Large plant response rating) was 10%, the pest or weed control at 500 g/ha ([9]; Digitaria sanguinalis, pre-emergence, visual rating, 0 = no effect, 100 = complete control, read-out: Plant response rating, Crabgrass, Large) was 100% and the “Plant response rating (0 to 100 scale), Corn” value [10, 16] was 60. For the same molecule, the plant injury at 125 g/ha ([10]; Zea mays, post-emergence, 125 g ai/ha, visual rating, scale 0 (no effect) to 100 (complete control), read-out: Corn plant response rating) was 0%, the plant injury at 500 g/ha ([10]; Zea mays, post-emergence, postemergence, 500 g ai/ha, scale 0 to 100, 0 is no effect, 100 is complete control, read-out: Corn plant response rating) was 0% and the Corn plant response rating (crop injury, 0 = no effect, 100 = complete kill) at 500 g/ha ([10]; Zea mays, pre-emergence, 500 g ai/ha, visual rating, 0 = no effect, 100 = complete control) was 100%. The pest or weed control at 125 g/ha [11, 17] was 20%, the pest or weed control at 500 g/ha [11, 18] was 30% and the “Plant response rating (0 to 100 scale), Pigweed” value [12, 16] was 70. The pest or weed control at 125 g/ha ([12]; Amaranthus retroflexus, post-emergence, 336 h, 125 g ai/ha, visual rating, scale 0 (no effect) to 100 (complete control), read-out: Pigweed plant response rating) was 20%, the pest or weed control at 500 g/ha ([12]; Amaranthus retroflexus, post-emergence, 336 h, postemergence, scale 0 to 100, 0 is no effect, 100 is complete control, read-out: Pigweed plant response rating) was 40% and the pest or weed control at 500 g/ha ([12]; Amaranthus retroflexus, pre-emergence, 336 h, visual rating, 0 = no effect, 100 = complete control, read-out: Plant response rating, Pigweed) was 100%. For the same molecule, the “Plant response rating (0 to 100 scale), Foxtail, Giant” value [13, 16] was 60, the pest or weed control at 125 g/ha ([13]; Setaria faberi, post-emergence, 336 h, 125 g ai/ha, visual rating, scale 0 (no effect) to 100 (complete control), read-out: Foxtail, Giant plant response rating) was 10% and the pest or weed control at 500 g/ha ([13]; Setaria faberi, post-emergence, 336 h, postemergence, scale 0 to 100, 0 is no effect, 100 is complete control, read-out: Foxtail, Giant plant response rating) was 30%. The pest or weed control at 500 g/ha ([13]; Setaria faberi, pre-emergence, 336 h, visual rating, 0 = no effect, 100 = complete control, read-out: Plant response rating, Foxtail, Giant) was 100%, the plant injury at 1000 g/ha [14] was 70% and the “Plant response rating (0 to 100 scale), Velvetleaf” value [15, 16] was 50. For the same molecule, the pest or weed control at 125 g/ha ([15]; Abutilon theophrasti, post-emergence, 336 h, 125 g ai/ha, visual rating, scale 0 (no effect) to 100 (complete control), read-out: Velvetleaf plant response rating) was 10% and the pest or weed control at 500 g/ha ([15]; Abutilon theophrasti, post-emergence, 336 h, postemergence, 500 g ai/ha, scale 0 to 100, 0 is no effect, 100 is complete control, read-out: Velvetleaf plant response rating) was 20%.
